This is an account of results in patent US5071841A, “Sulfur-containing heterocyclic compounds useful for the treatment of osteoporosis, and their production” (priority 1988, dated 1991).

Where two headings read alike, the source gives them in different places.

Series [1] concerns right and left humeri (radii and ulnae) of rat fetus. The experiment in a line: Bone resorption inhibition: 45Ca release from fetal rat bone in culture (method of Raisz). In kind it is cell-based, Sprague-Dawley rat. The settings on record: for activity at 10 µg/mL: Rattus norvegicus, 48 h, read-out: 45Ca released (% of control value).
Experimental: Thus, a Sprague-Dawley rat at day 19 of pregnancy was subcutaneously dosed with 50 μCi of ^45 Ca (a radioisotope of calcium, in CaCl2). On the next day, the animal was laparotomized and the fetuses were removed aseptically. The right and left humeri (radii and ulnae) of each rat fetus were dissected from the body under the dissection microscope. The connective tissue and cartilages were removed as far as possible to prepare bone culture specimens. Each piece of bone was incubated in 0.6 ml of BGJb medium Fitton-Jackson modification (the tradename owned by GIBCO Laboratories, U.S.A.) containing 2 mg/ml of bovine serum albumin at 37° C. for 24 hours. […] The radioactivities of ^45 Ca in the culture medium and bone were determined and the ratio (%) of ^45 Ca released from the bone to the medium was calculated according to the following formula. […] A=ratio (%) of ^45 Ca released from the bone to the medium B=^45 Ca count in the medium
C=^45 Ca count in the bone
The bones from the fetuses of the same litter were similarly incubated without addition of the test compound for two days and served as controls.
The values for 5 bones per group were expressed in mean. The ratio (%) of this value for the treatment group to the control value was determined.
The test system of another series is mice. Briefly: Oral toxicity in mice. In kind it is in vivo. The settings on record: 300 mg/kg. The text has this:
The compound (I) and salt according to the present invention has excellent bone resorption inhibitory activity. Thus, they have the action to inhibit the dissolution and diminution of bone in the body. Furthermore, compound (I) and salts thereof have bone formation promoting activity.

Series [2] concerns oophorectomized Sprague-Dawley rats, right femur. The experiment in a line: Treatment of osteoporosis in oophorectomized rats (femur bone density, dry weight, ashes). It is filed as in vivo. The note with it: daily dose 100 mg/kg orally; for Ashes / Dry weight: 18 doses, distal 1/3 of right femur. The procedure:
Study on Treatment of Osteoporosis
Oophorectomy was performed on Sprague-Dawley rats at 10 weeks of age and starting from the following day, the rats were orally dosed with the test compound 6 days a week for 3 weeks, or a total of 18 days. On the day following the last dosing, the right femur was removed from each rat and subjected to soft X-ray photography with a soft X-ray apparatus (Softex CSM, Softex). Using a microdensitometer (PDM-5, Konica Medical), the transverse section of the femur on the soft X-ray film was scanned at a point one-fifth from the distal end (metaphysis) and from the density wave pattern, bone density was calculated according to the microdensitometric method described by Inoue et al. [Journal of Japanese Orthopedic Association (J Jpn. Orthop. Ass.) 57, 1923 (1983)].
After soft X-ray photographing, the 1/3 distal part of the femur was sectioned off at right angles with the major axis. After the bone marrows were washed off with a rinse pump, the femur section was put into a porcelain crucible, placed in a oven and dried at 110° C. for 24 hours. The dry weight was then determined.
The porcelain crucible containing the bone was transferred to a muffle furnace (FP-41, Yamato Chemicl) and heated at 500° C. for 3 hours and at 800° C. for 2 hours for calcification of the bone and the ashes were weighed.
The mean ± standard errors of the measured values for the right femurs of 7 rats per group were determined.

[3] abbreviates: final concentration 10 μg/ml, two additional days at 37° C., mean of 5 bones per group, lower = more inhibition.
Where [4] appears, read: Table 4, oophorectomy control 76.3, sham 85.7.
Where [5] appears, read: Table 4, oophorectomy control 114.2, sham 131.4.

Turning to `CCOP(=O)(Cc1ccc(NC(=O)[C@@H]2S[C@@H](C)C(=O)c3cc(C4CCCCC4)ccc32)cc1)OCC` (relative stereo) [Example 23], the activity at 10 µg/mL in series [1] worked out at 65%.
For `O=C1CSC(C(=O)O)c2ccc(Cl)cc21` (stereo not drawn) [Example 1, 6-chloro-3,4-dihydro-1H-2-benzothiopyran-4-one-1-carboxylic acid], the activity at 10 µg/mL in series [1] (setting [3]) was 84%.
For the compound `O=C1CSC(C(=O)Nc2cccnc2)c2ccc(C3CCCCC3)cc21` (stereo not drawn) [Example 10, 6-cyclohexyl-N-(3-pyridyl)-3,4-dihydro-1H-2-benzothiopyran-4-one-1-carboxamide], the activity at 10 µg/mL in series [1] (setting [3]) turned out to be 62%.
For `O=C1CSC(C(=O)Nc2nccs2)c2ccc(C3CCCCC3)cc21` (stereo not drawn) [Example 12], in series [1] (setting [3]), the activity at 10 µg/mL was determined as 84%.
In the case of `COc1ccc(-c2csc(NC(=O)C3SCC(=O)c4cc(C5CCCCC5)ccc43)n2)cc1OC` (stereo not drawn) [Example 14], the activity at 10 µg/mL in series [1] (setting [3]) turned out to be 81%.
In the case of `O=C1CSC(C(=O)N2CCN(c3ccc(F)cc3)CC2)c2ccc(C3CCCCC3)cc21` (stereo not drawn) [Example 18], the death entry in the series with mice was “no death was encountered”.
Turning to `O=C1CSC(C(=O)Nc2ccc3c(c2)OCO3)c2ccc(C3CCCCC3)cc21` (stereo not drawn) [Example 19], in series [1] (setting [3]), the activity at 10 µg/mL is 70%.
In the case of `O=C1CSC(C(=O)Nc2ccc(Cl)cc2)c2ccc(C3CCCCC3)cc21` (stereo not drawn) [Example 21], in series [1] (setting [3]), the activity at 10 µg/mL was 73%.
For the compound `CCOP(=O)(Cc1ccc(NC(=O)C2SCC(=O)c3cc(C4CCCCC4)ccc32)cc1)OCC` (stereo not drawn) [Example 22], the activity at 10 µg/mL in series [1] was 57%. In series [2] (Table 2, oophorectomy control 74.3, sham 80.0), the Ashes turned out to be 82.4 mg. Moreover, in series [2] (Table 2, oophorectomy control 107.7, sham 116.2), the Dry weight stood at 120.0 mg. Moreover, in series [2] (Table 2, 6 days a week for 3 weeks, femur metaphysis, oophorectomy control 1.062, sham 1.304), the Bone density is given as 1.336. The death entry in the series with mice is “no death was encountered”.
In the case of `COc1ccc(NC(=O)C2SCC(=O)c3cc4c(cc32)CCCC4)cc1OC` (stereo not drawn) [Example 28], the activity at 10 µg/mL in series [1] (setting [3]) is 79%.
For `O=C1CSC(C(=O)N2CCN(c3ccc(F)cc3)CC2)c2cc3c(cc21)CCCC3` (stereo not drawn) [Example 30], in series [1] (setting [3]), the activity at 10 µg/mL was 75%.
As to `COP(=O)(OC)c1ccc(NC(=O)C2SCC(=O)c3cc4c(cc32)CCCC4)cc1` (stereo not drawn) [Example 31], the activity at 10 µg/mL in series [1] is 64%.
Turning to `CCOP(=O)(OCC)c1ccc(NC(=O)C2SCC(=O)c3cc4c(cc32)CCCC4)cc1` (stereo not drawn) [Example 33], the activity at 10 µg/mL in series [1] is 53%.
The same measure, in the same setting: under `CCOP(=O)(Cc1ccc(NC(=O)C2SCC(=O)c3cc4c(cc32)CCCC4)cc1)OCC` (stereo not drawn) [Example 35] stands 58%; under `CC(C)OP(=O)(Cc1ccc(NC(=O)C2SCC(=O)c3cc4c(cc32)CCCC4)cc1)OC(C)C` (stereo not drawn) [Example 36], 73%.
On the same count and under the same terms, under `CCOP(=O)(OCC)c1ccc(NC(=O)C2SCC(=O)c3cc(Cl)ccc32)cc1` (stereo not drawn) [Example 46] stands 76%; under `CCCOP(=O)(OCCC)c1ccc(NC(=O)C2SCC(=O)c3cc4c(cc32)OCCO4)cc1` (stereo not drawn) [Example 50], 73%.
Take `COc1ccc(CCN(C)C(=O)C2SCC(=O)c3cc(C4CCCCC4)ccc32)cc1OC` (stereo not drawn) [Example 55]: the activity at 10 µg/mL in series [1] (setting [3]) came to 78%.
Consider `CCOP(=O)(OCC)c1ccc(NC(=O)C2Cc3ccc(C4CCCCC4)cc3C(=O)CS2)cc1` (stereo not drawn) [Example 56, 7-cyclohexyl-N-(4-diethoxyphosphorylphenyl)-1,2,4,5-tetrahydro-3-benzothiepin-5-one-2-carboxamide], for which the activity at 10 µg/mL in series [1] turned out to be 76%.
Consider `O=C(Nc1ccc2c(c1)OCO2)C1SCC(O)c2ccc(C3CCCCC3)cc21` (stereo not drawn) [Example 59, 7-cyclohexyl-N-(3,4-methylenedioxyphenyl)-c-4-hydroxy-3,4-dihydro-1H-2-benzothiopyran-r-1-carboxamide], for which the “45Ca released (% of control value)” value in series [1] (final concentration 10 μg/ml, two additional days at 37° C., mean of 5 bones per group, lower = more inhibition, 2880 min) was 64 % of control value.
Take `CCOP(=O)(Cc1ccc(NC(=O)C2SCC(=O)c3cc(C4CCCC4)ccc32)cc1)OCC` (stereo not drawn) [Example 132]: the activity at 10 µg/mL in series [1] worked out at 57%.
As to `CCOP(=O)(Cc1ccc(NC(=O)C2SCC(=O)c3cc(C4CCCCCC4)ccc32)cc1)OCC` (stereo not drawn) [Example 138], the activity at 10 µg/mL in series [1] turned out to be 63%.
On to `CCOP(=O)(Cc1ccc(NC(=O)C2SCC(=O)c3cc(C)ccc32)cc1)OCC` (stereo not drawn) [Example 140], for which the activity at 10 µg/mL in series [1] amounted to 61%.
With `CCOP(=O)(OCC)c1ccc(NC(=O)C2SCC(=O)c3cc(C(C)C)ccc32)cc1` (stereo not drawn) [Example 141], the activity at 10 µg/mL in series [1] was 57%.
Take `CCOP(=O)(OCC)c1ccc(NC(=O)C2SCC(=O)c3cc(C(C)(C)C)ccc32)cc1` (stereo not drawn) [Example 143]: the activity at 10 µg/mL in series [1] stood at 44%.
Take `CCOP(=O)(CCc1ccc(NC(=O)C2SCC(=O)c3cc(C(C)(C)C)ccc32)cc1)OCC` (stereo not drawn) [Example 144]: in series [1], the activity at 10 µg/mL was 52%.
On to `CCOP(=O)(Cc1ccc(NC(=O)C2SCC(=O)c3cc(C(C)(C)CC)ccc32)cc1)OCC` (stereo not drawn) [Example 146], for which the activity at 10 µg/mL in series [1] stood at 62%. In series [2] (Table 3, oophorectomy control 74.3, sham 88.3), this compound showed an Ashes of 84.1 mg. Further, the Dry weight in series [2] (Table 3, oophorectomy control 112.3, sham 130.4) is 128.2 mg.
As for `CCOP(=O)(Cc1ccc(NC(=O)C2SCC(=O)c3c(C)ccc(C)c32)cc1)OCC` (stereo not drawn) [Example 150], in series [1], the activity at 10 µg/mL was 71%.
Regarding `Cc1cc(C)c2c(c1)C(=O)CSC2C(=O)Nc1ccc(Cl)cc1` (stereo not drawn) [Example 153], the activity at 10 µg/mL in series [1] (setting [3]) was 63%.
Still for that read-out and setting: under `Cc1cc2c(cc1C)C(C(=O)Nc1ccc(Cl)c(Cl)c1)SCC2=O` (stereo not drawn) [Example 155] stands 80%; under `Cc1cc2c(cc1C)C(C(=O)Nc1ccc(C)c(Cl)c1)SCC2=O` (stereo not drawn) [Example 157], 71%.
`COP(=O)(OC)c1ccc(NC(=O)C2SCC(=O)c3cc(C)c(C)cc32)cc1` (stereo not drawn) [Example 160]: the activity at 10 µg/mL in series [1] was determined as 54%.
In the case of `CCOP(=O)(OCC)c1ccc(NC(=O)C2SCC(=O)c3cc(C)c(C)cc32)cc1` (stereo not drawn) [Example 161], the activity at 10 µg/mL in series [1] amounted to 50%. Moreover, the Ashes in series [2] (setting [4]) came to 83.7 mg. The compound further showed a Dry weight in series [2] (setting [5]) of 127.5 mg.
The corresponding values for `CCOP(=O)(Cc1ccc(NC(=O)C2SCC(=O)c3cc(C)c(C)cc32)cc1)OCC` (stereo not drawn) [Example 163] are 50%, 82.3 mg and 127.6 mg.
Turning to `O=C1CSC(C(=O)Nc2ccc(Cl)cc2)c2cc3c(cc21)CCC3` (stereo not drawn) [Example 183], in series [1] (setting [3]), the activity at 10 µg/mL came to 47%.
As to `CCOP(=O)(Cc1cccc(NC(=O)C2SCC(=O)c3cc4c(cc32)CCCC4)c1)OCC` (stereo not drawn) [Example 191], in series [1], the activity at 10 µg/mL was determined as 58%.
Same read-out and setting: under `CCOP(=O)(OCC)c1ccc(NC(=O)C2SCC(=O)c3cc4c(cc32)CCCCC4)cc1` (stereo not drawn) [Example 198] stands 62%.
As to `CCOP(=O)(NC(=O)C1SCC(=O)c2cc(C3CCCCC3)ccc21)OCC` (stereo not drawn) [Example 201, 6-cyclohexyl-N-diethoxyphosphoryl-3,4-dihyiro-1H-2-benzothiopyran-4-one-1-carboxamide], in series [1], the activity at 10 µg/mL came out at 65%.
